Results: US6380198B1 (Laboratoire Medidom S.A., priority 1997, dated 2002)
Several values for one entry are separate records, joined by “and”; a condition that tells them apart may be missing. Identical values can stand only once.

Columns and labels:
[1] = tested on: intraocular pressure of rabbits with ocular hypertension; assay: Intraocular pressure in rabbits with ocular hypertension induced by α-chymotrypsin; format: in vivo, rabbit (Vienna Blue, pigmented); settings: for Intraocular pressure (mmHg) at the time (min): 30, average ± S.D. / Intraocular pressure (mmHg) at the time (min): 60, average ± S.D. / Intraocular pressure (mmHg) at the time (min): 90, average ± S.D. / Intraocular pressure (mmHg) at the time (min): 120, average ± S.D. / Intraocular pressure (mmHg) at the time (min): 180, average ± S.D. / Intraocular pressure (mmHg) at the time (min): 240, average ± S.D. / Intraocular pressure (mmHg) at the time (min): 0, average ± S.D. / Intraocular pressure (mmHg) at the time (min): 30 / Intraocular pressure (mmHg) at the time (min): 60 / Intraocular pressure (mmHg) at the time (min): 90 / Intraocular pressure (mmHg) at the time (min): 120 / Intraocular pressure (mmHg) at the time (min): 180 / Intraocular pressure (mmHg) at the time (min): 240 / Intraocular pressure (mmHg) at the time (min): 0: Table 3, hypertensive rabbits, 50 μl eye-drops: 0.050% flunarizine, 0.056% verapamil, 0.051% diltiazem, 0.043% nifedipine; for Intraocular pressure (mmHg) at the time (min): 30, average ± S.D. / Intraocular pressure (mmHg) at the time (min): 60, average ± S.D. / Intraocular pressure (mmHg) at the time (min): 90, average ± S.D. / Intraocular pressure (mmHg) at the time (min): 120, average ± S.D. / Intraocular pressure (mmHg) at the time (min): 180, average ± S.D. / Intraocular pressure (mmHg) at the time (min): 240, average ± S.D. / Intraocular pressure (mmHg) at the time (min): 0, average ± S.D.: average ± S.D. of 4 rabbits; for Intraocular pressure (mmHg) at the time (min): 30, average ± S.D. / Intraocular pressure (mmHg) at the time (min): 30: 30 min after instillation; for Intraocular pressure (mmHg) at the time (min): 60, average ± S.D. / Intraocular pressure (mmHg) at the time (min): 60: 60 min after instillation; for Intraocular pressure (mmHg) at the time (min): 90, average ± S.D. / Intraocular pressure (mmHg) at the time (min): 90: 90 min after instillation; for Intraocular pressure (mmHg) at the time (min): 120, average ± S.D. / Intraocular pressure (mmHg) at the time (min): 120: 120 min after instillation; for Intraocular pressure (mmHg) at the time (min): 180, average ± S.D. / Intraocular pressure (mmHg) at the time (min): 180: 180 min after instillation; for Intraocular pressure (mmHg) at the time (min): 240, average ± S.D. / Intraocular pressure (mmHg) at the time (min): 240: 240 min after instillation; for Intraocular pressure (mmHg) at the time (min): 0, average ± S.D. / Intraocular pressure (mmHg) at the time (min): 0: time 0 = 15 min before instillation (baseline); for Intraocular pressure (mmHg) at the time (min): 30 / Intraocular pressure (mmHg) at the time (min): 60 / Intraocular pressure (mmHg) at the time (min): 90 / Intraocular pressure (mmHg) at the time (min): 120 / Intraocular pressure (mmHg) at the time (min): 180 / Intraocular pressure (mmHg) at the time (min): 240 / Intraocular pressure (mmHg) at the time (min): 0: individual rabbit, right eye
Experimental: Rabbits of the same type as those described in the previous section were used for the following tests.
In the rabbit, the injection of this enzyme in the posterior chamber causes, after one month from the administration, an effect of ocular hypertension.
At the end of the quarantine period the rabbits were anaesthetised by intramuscular administration of ketamine hydrochloride and xylazine hydrochloride (RBI). The right eye was gently pushed outwardly after instilling 25 μl of Novesine® eye-drops, containing oxybuprocaine as an anaesthetic; then, a sterile solution of σ-chymotrypsin (SIGMA, Milan; 150 units in 100 μl of physiologic sterile solution) was injected in the posterior chamber of the right eye by means of a 30G sterile needle. After the administration of the enzyme, the eye was thoroughly washed with physiologic sterile solution in order to remove any traces of α-chymotrypsin which could damage the ocular tissues. Then, 2 drops of a commercial ophthalmic antibiotic solution (Colbiocin®, SIFI S.p.A., containing chloramphenicol, rolitetracycline, colistin methanesulphonate) were instilled. The treatment was carried out 3 times a day (at 8.00 a.m., 12.00 a.m. and 6.00 p.m.) for one week after the administration of α-chymotrypsin. The rabbits were employed in the tests after one month from the induction of ocular hypertension by means of the enzyme.
The rabbits, divided also in this case in groups of 4 animals, were treated by instillation of 50 μl of the product under test in the right conjunctival fornix.
The intraocular pressure in the treated eye was measured, according to the same procedure as in the previous tests, 15 minutes before the instillation of the eye-drops and 30, 60, 90, 120, 180 and 240 minutes after. The values obtained were statistically analysed according to the criteria mentioned in the foregoing.
The experimental conditions were exactly the same as before.

[2] = molecular target: T1, σ-1 receptors (Oryctolagus cuniculus, UniProt G1SD54); assay: Inhibition of 3H(+)-N-allyl-nor-methazocine binding to irido-ciliary body membranes; set-up: species or system rabbit (New Zealand albino); settings: rabbit irido-ciliary body P2 membranes, 300 μg protein, 37° C., 150 minutes, duplicate
T1 construct: cell membranes obtained from the irido-ciliary body complex; from tissue; host or cells: rabbit irido-ciliary body, P2 membrane fraction
T1 sequence (G1SD54 1-223): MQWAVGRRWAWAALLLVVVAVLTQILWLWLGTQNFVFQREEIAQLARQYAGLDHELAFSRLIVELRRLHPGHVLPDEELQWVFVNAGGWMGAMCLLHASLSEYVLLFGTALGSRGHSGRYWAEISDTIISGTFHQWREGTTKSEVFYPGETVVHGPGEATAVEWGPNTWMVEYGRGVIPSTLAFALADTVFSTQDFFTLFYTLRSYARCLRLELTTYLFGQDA
Experimental: The receptor binding technique was carried out on cell membranes obtained from the irido-ciliary body complex explanted, after sacrifice, from male albino rabbits of the New Zealand strain (Charles River Italiana, of Calco (CO)). The tissue was homogenised in buffer and the P2, fraction, rich in cell membrane proteins, was isolated. […] The La total protein concentration was determined with the Lowry method.
The non specific binding was evaluated in presence of haloperidol.
All tests were carried out in duplicate. The reaction was maintained at 37° C. for 150 minutes, followed by filtration on WhatmannGF/B filters. The radioactivity left on the filters was measured by liquid scintillation spectrometry.

[3] = tested on: intraocular pressure; settings: Payene et al. 1990; cited from earlier work
[4] = tested on: intraocular pressure of rabbits showing normal baseline intraocular pressure; assay: Intraocular pressure in rabbits with normal intraocular pressure after topical instillation; format: in vivo, rabbit (Vienna Blue, pigmented); settings: for Intraocular pressure (mmHg) at the time (min): 30, average ± S.D. / Intraocular pressure (mmHg) at the time (min): 60, average ± S.D. / Intraocular pressure (mmHg) at the time (min): 90, average ± S.D. / Intraocular pressure (mmHg) at the time (min): 120, average ± S.D. / Intraocular pressure (mmHg) at the time (min): 180, average ± S.D. / Intraocular pressure (mmHg) at the time (min): 240, average ± S.D. / Intraocular pressure (mmHg) at the time (min): 0, average ± S.D. / Intraocular pressure (mmHg) at the time (min): 30 / Intraocular pressure (mmHg) at the time (min): 60 / Intraocular pressure (mmHg) at the time (min): 90 / Intraocular pressure (mmHg) at the time (min): 120 / Intraocular pressure (mmHg) at the time (min): 180 / Intraocular pressure (mmHg) at the time (min): 240 / Intraocular pressure (mmHg) at the time (min): 0: Table 1, 50 μl eye-drops: 0.050% flunarizine, 0.056% verapamil, 0.051% diltiazem, 0.043% nifedipine; for Intraocular pressure (mmHg) at the time (min): 30, average ± S.D. / Intraocular pressure (mmHg) at the time (min): 60, average ± S.D. / Intraocular pressure (mmHg) at the time (min): 90, average ± S.D. / Intraocular pressure (mmHg) at the time (min): 120, average ± S.D. / Intraocular pressure (mmHg) at the time (min): 180, average ± S.D. / Intraocular pressure (mmHg) at the time (min): 240, average ± S.D. / Intraocular pressure (mmHg) at the time (min): 0, average ± S.D.: average ± S.D. of 4 rabbits; for Intraocular pressure (mmHg) at the time (min): 30, average ± S.D. / Intraocular pressure (mmHg) at the time (min): 30: 30 min after instillation; for Intraocular pressure (mmHg) at the time (min): 60, average ± S.D. / Intraocular pressure (mmHg) at the time (min): 60: 60 min after instillation; for Intraocular pressure (mmHg) at the time (min): 90, average ± S.D. / Intraocular pressure (mmHg) at the time (min): 90: 90 min after instillation; for Intraocular pressure (mmHg) at the time (min): 120, average ± S.D. / Intraocular pressure (mmHg) at the time (min): 120: 120 min after instillation; for Intraocular pressure (mmHg) at the time (min): 180, average ± S.D. / Intraocular pressure (mmHg) at the time (min): 180: 180 min after instillation; for Intraocular pressure (mmHg) at the time (min): 240, average ± S.D. / Intraocular pressure (mmHg) at the time (min): 240: 240 min after instillation; for Intraocular pressure (mmHg) at the time (min): 0, average ± S.D. / Intraocular pressure (mmHg) at the time (min): 0: time 0 = 15 min before instillation (baseline); for Intraocular pressure (mmHg) at the time (min): 30 / Intraocular pressure (mmHg) at the time (min): 60 / Intraocular pressure (mmHg) at the time (min): 90 / Intraocular pressure (mmHg) at the time (min): 120 / Intraocular pressure (mmHg) at the time (min): 180 / Intraocular pressure (mmHg) at the time (min): 240 / Intraocular pressure (mmHg) at the time (min): 0: individual rabbit, right eye
Experimental: The effects of the agent of the invention on the intraocular pressure of rabbits showing normal baseline intraocular pressure were evaluated in comparison with the action of a placebo, and with that of various other calcium channel blocking agents. Female pigmented rabbits of the Vienna Blue strain were used (supplied by Charles River Italiana, of Calco (CO)). The age of the animals at the time of starting the experimentation was 9 weeks, and their weight was 2.0-2.5 kg.
The choice of a species with pigmented iris is due to the fact that the latter represents a reliable model for the evaluation of possible modifications of the intraocular pressure caused by the products under test. The strain chosen is genetically defined, so as to limit to a minimum the variability of the biological characteristics between one animal and the other.
The animals were kept in rooms maintained under constant and controlled conditions of temperature and humidity, illuminated for 12 hours a day with artificial light and with continuous renovation of the air. The feed consisted of a standard diet having a constant and known composition, and both feed and water were available ad libitum during the whole period of the test. The rabbits were stabled for 21 days before starting the test, so as to allow a sufficient acclimatation and to suitably evaluate the health conditions of the rabbits. Each experimental group consisted of 4 animals, which were allotted to the treatment groups in a randomised way.
Each different group of animals received, by instillation in the right conjunctival fornix, 50 μl of the following products:
The weight concentrations of the various agents under test are chosen so as to correspond to the same molar concentration.
The pressure in the treated eye was measured by flattening tonometer (TonopenXL®, Mentor), 15 minutes before the instillation of the eyerops (time 0) and then 30, 60, 90, 120, 180 and 240 minutes after. As a local anaesthetic, 5 minutes before carrying out each measurement 25 μl of a commercial ophthalmic solution containing 0.4% oxybuprocaine hydrochloride (Novesine®, Sandoz) was instilled. To carry out the measurement the rabbits were placed in a suitably designed cage, that prevents any sudden movement of the animal under test.
For each animal and at each of the times listed above the average of three subsequent measurements was calculated and recorded, each one said measurements being made after 1 minute from the previous one. The intraocular pressure values at the various times were compared with the values obtained before the treatment, by means of the Student's “t” test. The comparisons between different groups were made by processing the data by the variance analysis (ANOVA) and, where possible, by the Student's “t” test for the comparison of two different experimental groups. Values of p<0.05 were considered to be statistically significant.

[5] = tested on: cornea (corneal thickness); settings: rabbit, in vivo
Experimental: The evaluation of the thickness of the cornea was carried out ecographically by means of a UBM System 840 (Humphrey Instruments, San Leandro, Calif., USA). […] The software incorporated allows to modify the focalisation depth of the ultrasound beam, and to capture the image while varying its amplification.
The animals employed in this test were of the same type as those described in the foregoing, and were treated in the same way. The test was carried out, after having anaesthetised the animal (with ketamine hydrochloride and xylazine hydrochloride), by placing into contact with the eyeball tiny cups filled in with a coupling means (ultrasound gel).

[6] = 50 μl eye-drops, 0.050% flunarizine, equimolar comparators, 0.5% timolol

| Compound | Intraocular pressure (mmHg) at the time (min): 30, average ± S.D. [1] [mmHg] | Intraocular pressure (mmHg) at the time (min): 60, average ± S.D. [1] [mmHg] | Intraocular pressure (mmHg) at the time (min): 90, average ± S.D. [1] [mmHg] | Intraocular pressure (mmHg) at the time (min): 120, average ± S.D. [1] [mmHg] | Intraocular pressure (mmHg) at the time (min): 180, average ± S.D. [1] [mmHg] | Intraocular pressure (mmHg) at the time (min): 240, average ± S.D. [1] [mmHg] | Intraocular pressure (mmHg) at the time (min): 0, average ± S.D. [1] [mmHg] | Intraocular pressure (mmHg) at the time (min): 30 [1] | Intraocular pressure (mmHg) at the time (min): 60 [1] | Intraocular pressure (mmHg) at the time (min): 90 [1] | Intraocular pressure (mmHg) at the time (min): 120 [1] | Intraocular pressure (mmHg) at the time (min): 180 [1] | Intraocular pressure (mmHg) at the time (min): 240 [1] | Intraocular pressure (mmHg) at the time (min): 0 [1] | IC50 [2] [µM] | Intraocular pressure (mmHg) at the time (min): 30, average ± S.D. [4] [mmHg] | Intraocular pressure (mmHg) at the time (min): 60, average ± S.D. [4] [mmHg] | Intraocular pressure (mmHg) at the time (min): 90, average ± S.D. [4] [mmHg] | Intraocular pressure (mmHg) at the time (min): 120, average ± S.D. [4] [mmHg] | Intraocular pressure (mmHg) at the time (min): 180, average ± S.D. [4] [mmHg] | further results |
| --- | --- | --- | --- | --- | --- | --- | --- | --- | --- | --- | --- | --- | --- | --- | --- | --- | --- | --- | --- | --- | --- |
| COc1ccc([C@@H]2Sc3ccccc3N(CCN(C)C)C(=O)[C@@H]2OC(C)=O)cc1 [diltiazem] | 49.5 ± 5.80 | 47.5 ± 5.80 | 48.2 ± 5.90 | 49.5 ± 5.68 | 49.0 ± 5.71 | 48.7 ± 6.13 | 49.0 ± 5.71 | 55 mmHg and 53 mmHg and 48 mmHg and 42 mmHg | 53 mmHg and 51 mmHg and 46 mmHg and 40 mmHg | 54 mmHg and 52 mmHg and 46 mmHg and 41 mmHg | 56 mmHg and 52 mmHg and 47 mmHg and 43 mmHg | 56 mmHg and 51 mmHg and 48 mmHg and 43 mmHg | 55 mmHg and 52 mmHg and 47 mmHg and 41 mmHg | 55 mmHg and 52 mmHg and 47 mmHg and 42 mmHg | > 10 | 15.2 ± 1.2 | 14.7 ± 0.9 | 14.7 ± 0.9 | 15 ± 0.5 | 16.2 ± 0.95 | Effect on intraocular pressure in rabbits with ocular hypertension, in words [1, 6]: do not show any significant reduction; Intraocular pressure after topical administration to rabbits [3]: did not detect any significant effect; Effect on intraocular pressure in rabbits with normal pressure, in words [4, 6]: neither the verapamil formulation nor the diltiazem formulation, both using the same vehicle as MEG 01, did produce any intraocular pressure decrease; Intraocular pressure (mmHg) at the time (min): 240, average ± S.D. [4]: 16 ± 0.6 mmHg; Intraocular pressure (mmHg) at the time (min): 0, average ± S.D. [4]: 16.7 ± 1.5 mmHg; Intraocular pressure (mmHg) at the time (min): 30 [4]: 14 mmHg and 15 mmHg (2×) and 17 mmHg; Intraocular pressure (mmHg) at the time (min): 60 [4]: 14 mmHg (2×) and 17 mmHg and 13 mmHg; Intraocular pressure (mmHg) at the time (min): 90 [4]: 14 mmHg (2×) and 16 mmHg and 15 mmHg; Intraocular pressure (mmHg) at the time (min): 120 [4]: 15 mmHg (2×) and 16 mmHg (2×); Intraocular pressure (mmHg) at the time (min): 180 [4]: 15 mmHg and 16 mmHg and 17 mmHg (2×); Intraocular pressure (mmHg) at the time (min): 240 [4]: 16 mmHg (2×) and 17 mmHg (2×); Intraocular pressure (mmHg) at the time (min): 0 [4]: 15 mmHg and 16 mmHg and 18 mmHg (2×) |
| COC(=O)C1=C(C)NC(C)=C(C(=O)OC)C1c1ccccc1[N+](=O)[O-] [nifedipine] | 47.7 ± 7.18 | 46.75 ± 6.13 | 46.5 ± 6.19 | 47.0 ± 5.47 | 48.00 ± 4.98 | 48.00 ± 4.96 | 48.0 ± 5.47 | 55 mmHg and 52 mmHg and 45 mmHg and 39 mmHg | 53 mmHg and 50 mmHg and 45 mmHg and 39 mmHg | 52 mmHg and 50 mmHg and 46 mmHg and 38 mmHg | 53 mmHg and 49 mmHg and 46 mmHg and 40 mmHg | 54 mmHg and 48 mmHg and 45 mmHg and 41 mmHg | 54 mmHg and 49 mmHg and 47 mmHg and 42 mmHg | 54 mmHg and 50 mmHg and 47 mmHg and 41 mmHg | > 10 | 14.7 ± 1.2 | 13.7 ± 0.9 | 15.5 ± 0.6 | 16.0 ± 1.5 | 16.5 ± 1.7 | Intraocular pressure (mmHg) at the time (min): 240, average ± S.D. [4]: 16 ± 0 mmHg; Intraocular pressure (mmHg) at the time (min): 0, average ± S.D. [4]: 15.7 ± 1.7 mmHg; Intraocular pressure (mmHg) at the time (min): 30 [4]: 15 mmHg (2×) and 13 mmHg and 16 mmHg; Intraocular pressure (mmHg) at the time (min): 60 [4]: 14 mmHg and 13 mmHg (2×) and 15 mmHg; Intraocular pressure (mmHg) at the time (min): 90 [4]: 16 mmHg (2×) and 15 mmHg (2×); Intraocular pressure (mmHg) at the time (min): 120 [4]: 16 mmHg; Intraocular pressure (mmHg) at the time (min): 180 [4]: 17 mmHg (2×) and 15 mmHg (2×); Intraocular pressure (mmHg) at the time (min): 240 [4]: 17 mmHg (2×) and 14 mmHg and 18 mmHg; Intraocular pressure (mmHg) at the time (min): 0 [4]: 16 mmHg and 15 mmHg and 14 mmHg and 18 mmHg; Corneal swelling / alteration of corneal thickness, in words [5]: No significant effect |
